Reference: US6673812B1, “Preventives/remedies for glaucoma” (Senju Pharmaceutical Co., Ltd., priority 1998, dated 2004)

Columns and labels:
[1] = tested on: extracted ciliary muscle of white rabbit; experiment: Effect on carbachol contraction of extracted ciliary muscle of white rabbit (Magnus bath); type: cell-based
Experimental: Male Japanese white rabbits (body weight about 2 kg) were euthanized by intravenous administration of an excess pentobarbital sodium. The eyeball was enucleated immediately thereafter and preserved in a Krebs solution (NaCl:112 mM, KC1:5.9 mM, CaCl2 2H2O:2.0 mM, MgCl2 6H2O:1.2 mM, NaH2PO4 2H2O:1.2 mM, NaHCO3:25 mM, Glucose:11.5 mM). The ciliary body separated from the eyeball was hung in a Magnus bath filled with the Krebs solution and equilibrated under a 20-30 mg resting tension. The changes in the tension of the preparation was measured with a transducer and recorded on a pen recorder via an amplifier. As the contraction drug, carbachol was used, and the inhibitory action on the dose dependent response of phasic contraction was studied. The test drug was (+)-trans-4-(1-aminoethyl)-1-(4-pyridylcarbamoyl)cyclohexane 2HCl 1H2O (Compound A), which was added to the Magnus bath 5 min before addition of carbachol.

Japanese white rabbits [2] = experiment: Effect on blood flow of normal optic disc of white rabbits; type: in vivo, rabbit; details: 0.1% eye drop
Experimental: In this experiment, 0.1% eye drop containing Compound A (prepared in Example 2) and 0.1% eye drop containing Compound C (prepared in Example 5) were used.
Japanese white rabbits (body weight about 2 kg) purchased from Japan Laboratory Animals, INC. were used. These animals were bred in a breeding chamber set to temperature 23±3° C., humidity 55±10% and fed on limited amount of 100 g a day of a solid feed (Labo R Stock, Nihon-Nosan Kogyo K.K.). They were allowed free access to tap water. In the same manner as in Example 4, each test drug was administered. Using laser speckle microcirculation analyzer, the blood flow of optic disc was measured at 30, 60, 90, 120, 150 and 180 min after instillation and thereafter at one hour intervals till 300 min after the instillation.

Japanese white rabbits [3] = experiment: Ophthalmic disorder caused by 8-time-a-day instillation to white rabbits: observation of corneal staining spot; type: in vivo, rabbit; details: after 8th administration
Experimental: The test drugs, Compound A and Compound C, were each dissolved in the following base at a concentration of 0.125, 0.25, 0.5 and 1.0% and adjusted to pH 7 for use in this experiment. Japanese white rabbits (body weight about 2 kg) purchased from Japan Laboratory Animals, INC. were used. These animals were bred in a breeding chamber set to temperature 23±3° C., humidity 55±10% and fed on limited amount of 100 g a day of a solid feed (Labo R Stock, Nihon-Nosan Kogyo K.K.). They were allowed free access to tap water. Instillation: Using a micropipet, each test drug (100 μl) was instilled into the right eye of each animal 8 times at one hour intervals. Into the left eye was instilled a base in the same manner. Observation: anterior segment of the eye was macroscopically observed before instillation and 30 min after 2nd, 4th, 6th and 8th administrations, according to the macroscopic criteria for ocular lesions as shown in Table 1 (Naruyuki Fukui, […] no Rinshou 4, 277-289, 1970). In addition, corneal staining spot was observed before instillation and after 8th administration.

Japanese white rabbits [4] = experiment: Effect on normal intraocular pressure of white rabbits; type: in vivo, rabbit; details: 20 μl eye drop, 0.1% or 0.03%
Text: In this experiment, 0.1% eye drop and 0.03% eye drop containing Compound A (each prepared in Example 2 and Example 3), 0.03% eye drop containing Compound B (prepared in Example 4), 0.1% eye drop and 0.03% eye drop containing Compound C (each prepared in Example 5 and Example 6) and 0.03% eye drop containing Compound D (prepared in Example 7) were used.
Japanese white rabbits (body weight about 2 kg) purchased from Japan Laboratory Animals, INC. were used. These animals were bred in a breeding chamber set to temperature 23±3° C., humidity 55±10% and fed on limited amount of 100 g a day of a solid feed (Labo R Stock, Nihon-Nosan Kogyo K.K.). They were allowed free access to tap water. The rabbits were placed in a holding box for 5 hr a day for acclimation from 2 days prior to the test. […] After measurement of the initial value of the intraocular pressure, various eye drops (20 μl) were instilled into one eye, and a base, which was one of various eye drops except the test drug, was instilled into the other eye in the same manner and taken as the control eye.
The intraocular pressure was measured with time at 30, 60, 90, 120, 150 and 180 min after instillation and thereafter at one hour intervals until the intraocular pressure returned to the initial value, and the duration of the effect was examined.

| SMILES | type of antagonism against carbachol contraction ([1]; 10^−6-3×10^−4 M carbachol) | IC50 ([1]; ciliary muscle, added 5 min before carbachol, read-out: IC50 against carbachol contraction) | duration of optic disc blood flow increasing effect (Japanese white rabbits [2]) | observation of corneal staining spot (Japanese white rabbits [3]; any concentration (0.125, 0.25, 0.5 and 1.0%)) | character (onset, duration) of intraocular pressure lowering effect (Japanese white rabbits [4]) | observation of corneal staining spot (Japanese white rabbits [3]; 0.125% instillation) | observation of corneal staining spot (Japanese white rabbits [3]; 0.25% instillation, corneal epithelium) | observation of corneal staining spot (Japanese white rabbits [3]; 0.5% instillation, corneal epithelium) | observation of corneal staining spot (Japanese white rabbits [3]; 1.0% instillation, corneal epithelium) |
| --- | --- | --- | --- | --- | --- | --- | --- | --- | --- |
| CC(N)[C@H]1CC[C@H](C(=O)Nc2ccncc2)CC1.Cl.Cl.O (single isomer, unassigned; (+)) [Compound A, (+)-trans-4-(1-Aminoethyl)-1-(4-pyridylcarbamoyl)cyclohexane 2HCl 1H2O] | non-competitive antagonism | 2.8 µM | more long-lasting | did not lead to abnormalities | intraocular pressure lowering effect in early stages after instillation | – | – | – | – |
| C[C@@H](N)c1ccc(C(=O)Nc2ccncc2)cc1.Cl.Cl [Compound C, (R)-(+)-N-(4-pyridyl)-4-(1-aminoethyl)benzamide 2HCl] | – | – | – | – | – | did not cause particular abnormality | abnormality in two eyes | abnormality in all eyes | abnormality in all eyes |
